Assay results taken from patent US20230312587A1, “PTERIDINONE COMPOUNDS AND USES THEREOF” (Vertex Pharmaceutical Incorporated, priority 2018, published 2023).

Experiments:
[1] = system: Colo205-TCF/LEF-Luciferase (Luc) tumor; assay: In vivo inhibition of TCF/LEF reporter activity in Colo-205 tumors; set-up: concentration or dose not given beside the values; settings: TCF/LEF luciferase reporter in Colo-205 tumors, nu/nu mice, oral gavage
Summary of the method: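 Female nu/nu mice carried subcutaneous Colo205-TCF/LEF-luciferase tumours (200–500 mm^3), n=4 per group. Compound was given by oral gavage in 1:3:5:1 EtOH:DMSO:PEG-400:H2O at 10 ml/kg, with vehicle as control. Luciferase activity in tumour lysates (Steady-Glo) was normalised to BCA protein.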

[2] = system: non-small cell lung cancer (NSCLC) adenocarcinoma line D33966; assay: In vivo efficacy, NSCLC patient derived xenograft OD33966; set-up: species or system nu/nu mice; settings: Mus musculus, 336 h; NSCLC PDX OD33966, oral, 100 mpk qd, treatment day 14; read-out: % TGI
Protocol: Female immune deficient mice (Charles River, 4-6 wks age) were anesthetized with Ketamine-Xylazine (140 mg/kg-14 mg/kg ip) and shaved. Puralube eye ointment was applied to the eyes to prevent desiccation of the corneas. Betadine and 70% ethanol was applied to the shaved location to sterilize the skin at the location of the incision. The animals were placed in a biosafety cabinet for the duration of the surgery. Using scissors, an 8 to 10 mm incision was made in the lateral flank of the skin. A tumor fragment weighing between 50 and 150 mg was placed under the skin at the incision site using forceps, and staples were used to close the incision. The staples were removed 5 to 7 days after surgery. Starting approximately two weeks after implantation, animals were weighed, and tumors were measured using caliper twice weekly. Tumor volume was calculated using the formula: volume=length×width^2×0.52.
Compound administration began when xenografts reached approximately 100-300 mm3 and continued until control xenografts reached […] of the animal's body weight. Test compounds were administered orally by gastric gavage. Percent tumor growth inhibition (TG) was calculated on the indicated treatment day. Percent TGI is defined as: [1−(del T/del C)]×100%, where del T is the final minus initial average volumes of the treated group, and del C is the final minus initial average volumes of the control group. […] The tested compounds were administered orally. Vehicle control consisted of either 0.5% methylcellulose/0.1% sodium lauryl sulfate or 20% captisol. Tumor volumes were determined by caliper measurement twice a week.

[3] = system: β-catenin-TCF-mediated reporter transcription activity in Colo 205 cells; assay: Colo 205 reporter assay (TCF/LEF luciferase); format: cell-based; settings: Homo sapiens, COLO 205, 5 h, Colo 205 TCF/LEF luciferase reporter, five hours after addition of compound; read-out: TCF reporter Colo205 IC50
Summary of the method: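 Luciferase signal from a TCF/LEF-driven reporter, stably integrated in Colo 205 colon cancer cells, was measured 5 h after compound addition.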

Plk1 = Plk1 (Homo sapiens (Human), UniProt P53350); assay: PLK1 inhibition assay (radioactive-phosphate incorporation); format: biochemical; settings: Ki(app), read-out: PLK1 - 33P.ENZ - CB 10 Ki
Plk1, sequence (P53350 whole entry, species assumed): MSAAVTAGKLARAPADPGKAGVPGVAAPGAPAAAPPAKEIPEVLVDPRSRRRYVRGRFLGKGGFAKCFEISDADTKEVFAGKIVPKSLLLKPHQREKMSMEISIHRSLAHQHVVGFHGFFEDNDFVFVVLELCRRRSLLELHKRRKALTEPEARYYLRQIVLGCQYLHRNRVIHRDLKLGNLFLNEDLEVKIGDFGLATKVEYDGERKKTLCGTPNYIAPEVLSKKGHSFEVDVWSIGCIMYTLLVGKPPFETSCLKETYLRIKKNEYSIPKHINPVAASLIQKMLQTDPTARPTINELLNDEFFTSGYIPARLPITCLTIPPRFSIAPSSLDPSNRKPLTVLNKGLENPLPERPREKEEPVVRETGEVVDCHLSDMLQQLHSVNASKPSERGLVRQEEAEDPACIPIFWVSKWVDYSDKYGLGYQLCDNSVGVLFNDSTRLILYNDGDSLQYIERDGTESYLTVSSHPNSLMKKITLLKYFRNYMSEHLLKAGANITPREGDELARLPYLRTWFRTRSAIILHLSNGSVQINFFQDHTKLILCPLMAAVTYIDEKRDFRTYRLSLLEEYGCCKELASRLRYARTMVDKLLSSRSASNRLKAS
Protocol: Compounds were screened for their ability to inhibit Plk1 using a radioactive-phosphate incorporation assay. Assays were carried out in a mixture of 25 mM HEPES (pH 7.5), 10 mM MgCl2, 25 mM NaCl, and 2 mM DTT. Final substrate concentrations were 20 μM [γ-33P]ATP (35mCi 33P ATP/mmol ATP, Perkin Elmer/Sigma Chemicals) and 9 uM Sam68 protein. Assays were carried out at room temperature in the presence of 15 nM Plk1. An assay stock buffer solution was prepared containing all of the reagents listed above, with the exception of ATP and the test compound of interest. 0.75 μL of DMSO stock containing serial dilutions of the test compound (typically starting from a final concentration of 10 μM with 2-fold serial dilutions—final DMSO concentration 1.5%) was placed in a 384 well plate followed by addition of 25 μL [γ-33P]ATP (final concentration 20 μM). The reaction was initiated by addition of 25 μL of the assay stock buffer solution.
The reaction was stopped after 45 minutes by the addition of 25 μL 30% trichloroacetic acid (TCA) containing 10 mM cold ATP. The entire quenched reaction was transferred to a 384-well glass fiber filter plate (Millipore, Cat no. MZFBNOW50). The plate was washed with 3×5% TCA. After drying, 40 μL of Ultima Gold liquid scintillation cocktail (Perkin Elmer) was added to the well prior to scintillation counting in a PerkinElmer TopCount.
After removing mean background values for all of the data points, Ki(app) data were calculated from non-linear regression analysis of the initial rate data using the Prism software package (GraphPad Prism, GraphPad Software, San Diego California, USA).

[4] = system: global gene expression in HepG2 cells; assay: Global gene expression changes in HepG2 vs WFS1 depleted cells; format: cell-based; settings: HepG2, 6 hours of exposure
Source text: (§1) In contrast WFS1 depletion had no effect on thapsigargin induced changes in global gene expression (FIG. 7.)

[5] = system: ER stress marker proteins XBP1(s) and ATF4; assay: ER stress marker immunoblot in parental HepG2 vs WFS1 KO cells; format: cell-based; settings: 6 hours, immunoblotting
Source text: as §1

Colo-205 cells = assay: Calcium flux assay (FLIPR Calcium 5); format: cell-based; settings: Homo sapiens, COLO 205, 0.6 h, FLIPR Calcium 5, measured over 36 minutes
Protocol: Compounds described herein induced ER stress by causing intracellular calcium flux. Calcium flux was measured in Colo-205 cells using the FLTPR® Calcium 5 Assay Kit according to manufacter's protocol (Molecular Devices, Cat. #R8186) on a FLIPR3 system (Molecular Devices). Calcium flux is measured over 36 minutes. The Colo-205 calcium flux assay data are summarized in Table 47: A<0.6 μM; 0.6 μM≤B<2.0 μM; 2.0 μM≤C<10.0 μM; D≥10.0 μM.

HepG2 XBP1(u)-Luc cells = assay: HepG2 XBP1 reporter assay; format: cell-based; settings: Homo sapiens, 6 h
Protocol: HepG2 hepatoma cells were transduced with a retrovirus encoding the cDNA for unspliced (u) XBP1, which contains a non-processed intron, fused to the cDNA for firefly luciferase. Upon induction of ER stress, the non-processed intron of XBP1(u) is spliced out by active IRE1alpha endonuclease. The resulting spliced (s) XBP1 is now in frame with luciferase which causes the production of active luciferase protein, resulting in bioluminescence
HepG2 XBP1(u)-Luc cells were plated […] Cultured cells with a stably transfected reporter construct were plated at approximately 30,000 cells per well into 96 well multi-well plates for twenty four hours. The testing compounds were then added to the wells in 3-fold serial dilutions using a twenty seven micromolar top concentration. A series of control wells for each cell type received only compound solvent. Six hours after the addition of compound, reporter activity for luciferase was assayed, by addition of the SteadyGlo luminescence reagent (Promega). The reporter luminescence activity was measured using Pherastar plate reader (BMG Labtech). Readings was normalized to DMSO only treated cells, and normalized activities were then used in the IC50 calculations. The HepG2 XBP1 reporter assay data are summarized in Table 47: A<0.6 μM; 0.6 μM≤B<2.0 μM; 2.0 μM≤C<10.0 μM; D≥10.0 μM.

[6] = molecular target: HEK293 membranes over-expressing WFS-1 (Homo sapiens (Human), UniProt O76024); assay: Radioligand displacement assay (tritiated Compound 136 probe); format: binding; settings: displacement of tritiated Compound 136
HEK293 membranes over-expressing WFS-1, sequence (O76024 whole entry): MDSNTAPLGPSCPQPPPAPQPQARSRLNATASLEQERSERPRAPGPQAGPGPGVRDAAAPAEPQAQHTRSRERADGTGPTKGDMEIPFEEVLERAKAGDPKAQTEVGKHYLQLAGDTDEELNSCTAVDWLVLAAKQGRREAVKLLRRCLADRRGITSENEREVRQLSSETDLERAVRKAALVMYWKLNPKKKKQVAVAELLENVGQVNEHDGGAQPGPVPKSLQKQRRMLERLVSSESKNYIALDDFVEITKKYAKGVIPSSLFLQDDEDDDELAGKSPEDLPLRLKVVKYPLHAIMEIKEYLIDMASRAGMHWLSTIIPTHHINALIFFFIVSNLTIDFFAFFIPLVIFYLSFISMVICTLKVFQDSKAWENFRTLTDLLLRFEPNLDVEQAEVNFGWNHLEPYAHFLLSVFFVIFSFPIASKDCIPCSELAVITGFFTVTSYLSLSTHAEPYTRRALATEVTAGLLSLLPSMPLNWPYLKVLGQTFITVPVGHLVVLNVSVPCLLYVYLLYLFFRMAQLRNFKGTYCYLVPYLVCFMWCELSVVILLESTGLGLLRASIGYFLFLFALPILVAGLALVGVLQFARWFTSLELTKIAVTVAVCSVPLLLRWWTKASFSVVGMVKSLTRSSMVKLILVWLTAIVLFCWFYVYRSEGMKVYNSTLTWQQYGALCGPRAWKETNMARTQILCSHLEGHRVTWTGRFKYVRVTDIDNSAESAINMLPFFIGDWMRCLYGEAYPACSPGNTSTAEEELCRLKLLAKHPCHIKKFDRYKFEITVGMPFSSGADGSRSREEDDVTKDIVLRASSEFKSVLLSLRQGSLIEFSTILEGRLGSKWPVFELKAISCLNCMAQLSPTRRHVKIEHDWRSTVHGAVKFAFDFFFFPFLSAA
Protocol: Cell pellets were re-suspended in 15 times packed cellular volume in 4° C. hypotonic lysis buffer (10 mM HEPES, pH 7.5 containing 1×Protease inhibitor, 0.5 mM EDTA and 2 mM DTT). Re-suspended cells were homogenized with 6-8 strokes in a dounce homogenizer kept on ice. Lysates were centrifuged at 500×G for 15 minutes at 4° C. without brake to decelerate rotor. Following centrifugation, remove the supernatant to a fresh tube and place on ice (Supernatant 1). Repeat the above steps on the lysed cell pellet using 0.5 the original volume of hypotonic lysis buffer and remove the 500× G supernatant (Supernatant 2) and combine with Supernatant 1. Transfer the combined supernatants to a 45-Ti ultracentrifuge tube and centrifuge at 100,000× G for 30 minutes. Following ultracentrifugation, carefully remove the supernatant and discard. Resuspend the 100,000× G pellet in cold resuspension buffer (10 mM HEPES, pH 7.5, 300 mM NaCl containing 1× Protease inhibitor, 1× EDTA and 2 mM DTT). Centrifuge sample at 500× G for 10 minutes with no brake and remove any cloudy, flocculent material. Resuspend pellet in resuspension buffer to approximately 2 mg/mL of protein concentration for use in radioligand binding assay and immunoblotting.
The binding affinities of compounds were determined by measuring the competitive displacement of a tritiated Compound 136 probe from purified HEK293 membranes over-expressing WFS-1. The data for the radioligand displacement assay are summarized in Table 47: A<0.06 μM; 0.06 μM≤B<0.6 μM; 0.6 μM≤C<3.0 μM; D≥3.0 μM.
The probe Kd was determined by titrating tritiated probe under the standard assay conditions plus and minus excess unlabeled probe and fitting the resulting data to a “One site—Total and nonspecific binding” model in Graphpad Prism, version 6.0, San Diego, CA, US. Initially, 0.25 μl of compound dissolved in DMSO at varying concentrations was dispensed to a 384 well plate. Membrane and probe were both prepared at 2× their final concentration in 1× assay buffer as described above. 25 μL of membrane was added to the wells and incubated for 10 minutes. 25 μL of diluted probe was then added to the wells. The assay was incubated for 90 minutes at room temperature. The entire assay volume was then transferred to Millipore GF/B 384-well plates pretreated with 15 μL 0.5% PEI. The filter plates were washed 3× with 75 μL 25 mM TRIS, ph7.5, 0.1% BSA and then dried overnight. Following addition of 45 μL UltimaGold scintillant, the samples were counted in a Perkin Elmer Topcount. The radioactivity remaining is a measure of bound probe. From the bound probe vs concentration of compound titration curve, the IC50 is determined by fitting the data to a standard 3 parameter IC50 model using either Graphpad Prism, version 6.0, San Diego, CA, US, or using GeneData Analyzer, Basel, Switzerland.

Row | SMILES | Percent Remaining Activity at 8 hrs after Dosing [1] [%] | inhibition in vivo at 100 mg/kg [2] [%] | IC50 [3] [nM] | Ki (Plk1) [nM] | effect of WFS1 depletion on changes in global gene expression [4] | effect of WFS1 depletion on induction of XBP1(s) and ATF4 [5] | EC50 (Colo-205 cells) [nM] | IC50 (HepG2 XBP1(u)-Luc cells) [nM] | IC50 [6] [nM]
1 | C[C@H]1C(=O)Nc2cnc(NCc3cnn(Cc4cc(F)c(F)c(F)c4)c3)nc2N1C [Compound 42, (7S)-7,8-dimethyl-2-(((1-(3,4,5-trifluorobenzyl)-1H-pyrazol-4-yl)methyl)amino)-7,8-dihydropteridin-6(5H)-one] | 20 | 79.6 | < 300 | – | – | – | – | – | –
2 | Cc1nc(NCc2cnn(Cc3ccc(F)cc3)c2)nc2c1N(C)C(=O)C1(CC1)N2C [Compound 223, 2′-(((1-(4-fluorobenzyl)-1H-pyrazol-4-yl)methyl)amino)-4′,5′,8′-trimethyl-5′,8′-dihydro-6′H-spiro[cyclopropane-1,7′-pteridin]-6′-one] | 39 | – | < 300 | > 4000 | – | – | – | – | –
3 | C/C=C(/C)C(=O)O[C@H]1C(C)=C2[C@H]([C@@H]1OC(=O)CCCCCCC)[C@@](C)(OC(C)=O)C[C@H](OC(=O)CCC)[C@@]1(O)[C@H]2OC(=O)[C@@]1(C)O [thapsigargin, reference compound] | – | – | – | – | no effect | much lesser effect | – | – | –
4 | Cc1nc(N[C@H]2C[C@H](OCc3cc(F)c(F)c(F)c3)C2)nc2c1NC(=O)[C@H](C)N2C [Compound 254, (7S)-4,7,8-trimethyl-2-((trans-3-((3,4,5-trifluorobenzyl)oxy)cyclobutyl)amino)-7,8-dihydropteridin-6(5H)-one] | – | – | < 300 | > 4000 | – | – | 600 to 2000 | < 600 | 60 to 600
